Read-outs that look alike come from different tables or passages of the source.
Legend:
A. suum QFR (complex II) [1] = target: T1, A. suum QFR (complex II) (Ascaris suum, UniProt O44074+P92506+P92507); assay: SQR activity assay of A. suum complex II (QFR) in mitochondrial fraction, UQ2 consumption at 278 nm; type: biochemical
T1 construct: from tissue; host or cells: adult Ascaris suum muscle, mitochondrial fraction
Experimental: (§1) The CP buffer containing the prepared mitochondrial fraction was replaced with 50 mM Tris–HCl buffer, pH 7.4 containing 1 mM disodium malonate, 210 mM mannitol, 10 mM sucrose, and 1 mM EDTA. Final concentrations of the A. suum and porcine mitochondria (quantified protein) were adjusted to 10 and 20 mg/mL, respectively. Mitochondrial fractions were separated in 50 μL aliquots, frozen by liquid nitrogen and stored at 193 K until use. Prior to assay, the mitochondrial suspensions were thawed on ice and SQR was reactivated by incubation at 298 K for 30 min in equal volume of 50 mM potassium phosphate buffer pH 7.4, containing 337 μM disodium malonate. SQR assay buffer composed of 50 mM potassium phosphate buffer pH 7.4, 0.1% SML, 2 mM potassium cyanide, and 60 μM of 2,3-dimethoxy-5-methyl-6-geranyl-1,4-benzoquinone (UQ2) was pre-equilibrated at 298 K for 20 min. The assay mixture was constituted by adding 15 μg (A. suum) or 30 μg (porcine) of reactivated mitochondrial fraction to the assay buffer and incubated for 3 min for background activity measurements. The SQR activity was initiated by the addition of 10 mM disodium succinate, and recorded as rate of UQ2 consumption, monitored at 278 nm (ε278 = 15 mM^−1·cm^−1) for three minutes in 1 mL quartz cuvettes with a Shimadzu UV-3000 dual wavelength spectrophotometer (Shimazu, Kyoto, Japan). Inhibition of SQR activities were assayed in the presence of varying concentration of inhibitors (diluted in DMSO) and the IC50s calculated as the concentration of inhibitor that caused 50% decrease in SQR activity relative to control (DMSO).

porcine SQR (complex II) = target: T2, porcine SQR (complex II) (Sus scrofa, UniProt A5GZW8+D0VWV4+Q007T0); assay: SQR activity assay of porcine complex II in mitochondrial fraction, UQ2 consumption at 278 nm; type: biochemical
T2 construct: from tissue; host or cells: porcine heart muscle, mitochondrial fraction
Experimental: as §1

A. suum QFR (complex II) [2] = target: T1, A. suum QFR (complex II); conditions: read-out: IC50 for A. suum QFR; cited from earlier work
bovine SQR = tested on: bovine SQR; set-up: method as in PMID 3209470, PMID 12515859, PMID 19242645; conditions: cited from earlier work
[3] = porcine complex II, SQR assay, 298 K, pH 7.4, read-out: IC50 (SQR)

T1 sequence (Q33862 19-645): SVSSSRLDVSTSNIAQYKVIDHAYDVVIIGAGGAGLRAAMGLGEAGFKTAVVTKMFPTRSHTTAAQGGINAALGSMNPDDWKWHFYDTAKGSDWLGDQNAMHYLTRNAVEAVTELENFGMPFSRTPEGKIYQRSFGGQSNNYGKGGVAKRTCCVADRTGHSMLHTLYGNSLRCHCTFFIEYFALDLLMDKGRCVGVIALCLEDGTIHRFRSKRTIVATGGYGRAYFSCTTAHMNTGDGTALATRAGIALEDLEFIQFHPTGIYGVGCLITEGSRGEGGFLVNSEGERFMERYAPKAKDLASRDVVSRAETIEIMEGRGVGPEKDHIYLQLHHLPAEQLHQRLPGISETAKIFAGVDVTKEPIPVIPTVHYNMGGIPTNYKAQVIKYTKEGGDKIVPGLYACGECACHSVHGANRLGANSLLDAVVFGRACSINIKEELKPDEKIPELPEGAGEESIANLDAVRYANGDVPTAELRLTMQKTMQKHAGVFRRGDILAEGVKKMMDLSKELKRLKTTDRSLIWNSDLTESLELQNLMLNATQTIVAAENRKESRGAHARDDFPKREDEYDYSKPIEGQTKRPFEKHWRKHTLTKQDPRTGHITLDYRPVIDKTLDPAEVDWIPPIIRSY
T1 sequence (P92507 26-156): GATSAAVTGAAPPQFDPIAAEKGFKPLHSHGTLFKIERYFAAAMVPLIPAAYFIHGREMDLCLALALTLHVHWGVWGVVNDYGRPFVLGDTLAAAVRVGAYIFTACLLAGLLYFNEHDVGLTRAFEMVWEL
T1 sequence (P92506 32-188): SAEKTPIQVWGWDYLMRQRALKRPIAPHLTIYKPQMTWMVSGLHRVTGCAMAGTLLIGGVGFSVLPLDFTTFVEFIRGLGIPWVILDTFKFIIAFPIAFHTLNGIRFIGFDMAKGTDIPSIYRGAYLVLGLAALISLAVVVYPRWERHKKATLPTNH
T1 sequence (O44074 22-282): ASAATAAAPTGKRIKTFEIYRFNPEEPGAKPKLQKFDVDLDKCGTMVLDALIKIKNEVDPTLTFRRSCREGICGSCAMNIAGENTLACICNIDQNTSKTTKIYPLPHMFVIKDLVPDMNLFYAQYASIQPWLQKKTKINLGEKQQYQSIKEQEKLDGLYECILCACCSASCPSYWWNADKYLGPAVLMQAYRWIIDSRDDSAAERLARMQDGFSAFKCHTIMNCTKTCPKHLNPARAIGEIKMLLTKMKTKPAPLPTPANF
T2 sequence (Q007T0 29-280): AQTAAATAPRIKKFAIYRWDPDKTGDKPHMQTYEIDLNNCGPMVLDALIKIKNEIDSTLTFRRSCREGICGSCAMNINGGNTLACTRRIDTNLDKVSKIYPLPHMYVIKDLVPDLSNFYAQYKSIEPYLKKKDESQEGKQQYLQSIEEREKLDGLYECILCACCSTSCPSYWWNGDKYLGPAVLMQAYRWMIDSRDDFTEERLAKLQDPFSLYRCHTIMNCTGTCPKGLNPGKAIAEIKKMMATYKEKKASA
T2 sequence (D0VWV4 30-169): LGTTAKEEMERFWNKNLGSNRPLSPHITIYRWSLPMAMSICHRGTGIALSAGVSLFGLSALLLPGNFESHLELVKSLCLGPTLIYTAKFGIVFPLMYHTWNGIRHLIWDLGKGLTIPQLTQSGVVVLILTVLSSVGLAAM
T2 sequence (A5GZW8 57-159 limits assumed): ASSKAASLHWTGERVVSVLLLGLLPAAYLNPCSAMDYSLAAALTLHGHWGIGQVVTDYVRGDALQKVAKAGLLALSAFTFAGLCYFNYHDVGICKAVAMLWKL
T2 sequence (Q0QF01 43-664 partner): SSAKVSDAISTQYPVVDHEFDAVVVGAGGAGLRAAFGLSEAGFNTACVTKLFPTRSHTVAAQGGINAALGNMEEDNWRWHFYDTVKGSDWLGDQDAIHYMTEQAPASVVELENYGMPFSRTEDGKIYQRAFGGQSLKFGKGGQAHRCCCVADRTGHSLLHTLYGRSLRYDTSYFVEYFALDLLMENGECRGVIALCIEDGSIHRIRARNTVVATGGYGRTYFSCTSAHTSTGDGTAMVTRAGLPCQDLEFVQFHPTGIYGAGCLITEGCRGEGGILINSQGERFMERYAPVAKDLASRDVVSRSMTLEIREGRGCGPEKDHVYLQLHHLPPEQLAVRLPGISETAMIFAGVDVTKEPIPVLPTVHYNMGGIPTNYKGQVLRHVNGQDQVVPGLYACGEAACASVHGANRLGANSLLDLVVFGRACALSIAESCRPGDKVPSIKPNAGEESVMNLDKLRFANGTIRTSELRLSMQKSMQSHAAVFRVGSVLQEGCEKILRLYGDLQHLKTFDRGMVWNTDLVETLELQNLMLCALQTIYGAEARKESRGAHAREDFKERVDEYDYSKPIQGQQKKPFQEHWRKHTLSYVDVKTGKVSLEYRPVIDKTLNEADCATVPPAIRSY

Compound: O=C(Nc1cccc(Oc2ccccc2)c1)c1ccccc1C(F)(F)F [derivative 4]
- IC50 (A. suum QFR (complex II) [1]): 0.0794 µM
- IC50 (porcine SQR (complex II); [3]): 16.2 µM

Compound: O=C(NCc1ccc(Cl)cc1Cl)c1ccccc1C(F)(F)F [NN28]
- IC50 (A. suum QFR (complex II) [1]): 0.028 µM
- IC10 against porcine SQR (porcine SQR (complex II); porcine complex II, SQR assay): > 90.0 µM

Compound: COc1[nH]c(=O)c(C(=O)[C@@H](C)C[C@H](C)[C@@H](Cl)CCl)c(O)c1OC [Atpenin A5]
- IC50 (A. suum QFR (complex II) [2]): 0.012 µM
- IC50 (bovine SQR): 0.0036 µM

Compound: CC(C)Oc1cccc(NC(=O)c2ccccc2C(F)(F)F)c1 [flutolanil, N-[3-(isopropyloxy)phenyl]-2-(trifluoromethyl)benzamide, reference compound]
- IC50 (A. suum QFR (complex II) [1]): 0.0581 µM
- IC50 (A. suum QFR (complex II) [1]; IC50 (QFR), A. suum complex II, SQR assay, 298 K, pH 7.4): 0.058 µM
- IC50 (porcine SQR (complex II)): 45.9 µM

Compound: CC(C)(C)c1ccc(CNC(=O)c2ccccc2C(F)(F)F)cc1 [NN23]
- IC50 (A. suum QFR (complex II) [1]): 0.0055 µM
- selectivity index (IC50 porcine SQR / IC50 A. suum QFR) (A. suum QFR (complex II) [1]; A. suum QFR versus porcine SQR): about 20,000 folds
- IC50 (porcine SQR (complex II); [3]): 111 µM

Compound: CN(C)Cc1cccc(NC(=O)c2ccccc2C(F)(F)F)c1 [derivative 3]
- IC50 (A. suum QFR (complex II) [1]): 3.42 µM
- increase of IC50 for A. suum QFR relative to flutolanil (A. suum QFR (complex II) [1]): 59 fold
- IC50 (porcine SQR (complex II); [3]): 256 µM
- increase of IC50 for porcine SQR relative to flutolanil (porcine SQR (complex II); versus flutolanil): 6 fold

Compound: O=C(Nc1cccc(Oc2c(F)c(F)c(F)c(F)c2F)c1)c1ccccc1C(F)(F)F [derivative 6]
- IC50 (A. suum QFR (complex II) [1]): 0.33 µM
- IC50 (porcine SQR (complex II); [3]): 236 µM

Compound: CC(C)Oc1cccc(NC(=O)c2ccccc2I)c1 [derivative 1]
- IC50 (A. suum QFR (complex II) [1]): 0.0723 µM
- IC50 (porcine SQR (complex II); [3]): 6.43 µM

Compound: O=C(Nc1cccc(-c2ccccc2)c1)c1ccccc1C(F)(F)F [derivative 5]
- IC50 (A. suum QFR (complex II) [1]): 0.0245 µM
- IC50 (porcine SQR (complex II); [3]): 8.61 µM

Compound: Cc1ccccc1C(=O)Nc1cccc(OC(C)C)c1 [derivative 2]
- IC50 (A. suum QFR (complex II) [1]): 0.515 µM
- IC50 (porcine SQR (complex II); [3]): 90 µM

— article PMC4519900 (International Journal of Molecular Sciences, 2015)
